Source: patent publication US10556926B2, “Synthetic artificial peptides with antimicrobial effect” (priority 2014, dated 2020)
Where two headings read alike, the source gives them in different places. No end group written: not given here.

Key:
Staphylococcus xylosus = system: Staphylococcus xylosus
Description: (§1) The minimum inhibitory concentration (MIC) of the peptides was carried out by way of example against gram(−) E. coli DH5α (and gram(+) Staphylococcus xylosus (both Deutsche Sammlung von Mikroorganismen and Zellkulturen, DSMZ) in a standardized microdilution method according to the general guidelines of the CLSI (Clinical and Laboratory Standards Institute 2006) and EUCAST (European Committee for Antimicrobial Susceptibility Testing of the European Society of Clinical Microbiology and Infectious Diseases 2003) with slight adaptations to the investigation of cationic antimicrobial peptides (Wiegand et al. 2008). The bacteria cells were cultivated in Mueller-Hinton-Boullion (MHB) to an optical density of 0.4 to 0.6 at 600 nm wavelength, corresponding to about 4·10^8 bacteria per ml. Then, the bacteria cultures were diluted to a bacteria concentration of about 1·10^5 bacteria per ml in sterile MHB. Using the peptides, series of 2-fold dilutions starting at 128 μM to the smallest dilution of 0.5 μM in MHB were prepared. The peptide dilutions were mixed with the dilute bacteria cultures in a […] in the chambers of a 96-well polypropylene microtiter plate (Starlab, Hamburg, Germany), so that the peptides were present in an end concentration between 64 μM and 0.25 μM at a bacteria concentration of 5·10^4 bacteria/ml. Sterile MHB served as negative control, and the positive control used as the corresponding bacteria concentration in MHB without the addition of peptide. The microtiter plates were incubated for 18 hours at 37° C. with shaking at 120 rpm in a climatically controlled chamber. After the incubation, the bacteria concentration was determined by renewed absorption measurement at a wavelength of 600 nm.

E. coli DH5α = system: E. coli DH5α
Description: as §1

[1] = system: human histiocytic lymphoma cell line U937; assay: Cytotoxicity, direct membrane damage (CytoTox 96), LD50; assay type: cell-based; settings: U937, two hours at 37° C., 0.25-64 μM
Description: The direct membrane damage was investigated with the help of the CytoTox 96 Non-Radioactive Cytotoxicity Assay (Promega, Mannheim, Germany). For this purpose, the cells were sedimented at 100 g for ten minutes at 4° C., and 50 μl of the resulting culture supernatant were added to 50 μl of the CytoTox substrate mix. After an incubation time of 30 minutes in the dark at room temperature, 50 μl of the CytoTox stopping solution were added to the sample and the absorption was measured at 490 nm. To determine the LD50 value, the measurement value of the negative control was deducted from the absorption values and divided by the measurement value of the permeabilization control. The calculated values were plotted graphically against the peptide concentration and fitted using the Origin pro 8.1 G Software according to a sigmoidal model and the LD50 values were ascertained from this. The calculation was carried out analogously to example 5 by reference to the solution of equation 5.1 for the case y=50, where y in this case corresponds to the relative cytotoxicity in percent and x corresponds to the peptide concentration in μM. Representative graphical evaluations of LD50 values are shown in FIG. 6 by reference to the measurement results for the reference peptides BMAP-27, protamine and KL-helix, and also the peptide O1 according to the invention.

[2] = system: human histiocytic lymphoma cell line U937; assay: Long-term growth inhibition, minimum toxic concentration (MTC)
Description: The cytotoxic potential of the antimicrobial peptides was determined by way of example by reference to the human histiocytic lymphoma cell line U937 (DSMZ). The influence of the peptides on the permeability of the cell membrane and their longer-term growth-inhibiting effect was investigated. 15 ml of RPMI 1640 medium with 2 mM glutamine and 10% FCS (Biochrom, Berlin, Germany) were inoculated with 1·10^5 cells per ml and cultivated for three days at 37° in T75 cell culture bottles (TPP, Trasadingen, Switzerland) with constant gassing with 5% CO2 in a climatically controlled chamber. The medium was admixed with 10 U/ml penicillin and […] streptomycin (both AppliChem, Darmstadt, Germany) to avoid bacterial contaminations, with no further antibiotics being added during the subsequent recultivation. Before each experiment, the cells were washed by centrifugation at 100 g for five minutes and subsequent resuspension in RPMI 1640 medium with 2 mM glutamine and 10% FCS in each case two times and adjusted to a concentration of 1·10^5 cells per ml. Finally, in each case 100 μl of the U937 cells were transferred to the reaction chambers of a sterile 96-well polypropylene microtiter plate and admixed with in each case 100 μl of a prediluted antimicrobial peptide in RPMI 1640 medium without antibiotic addition, such that end concentrations of in each case 5·10^4 cells per ml at peptide concentrations between 0.25 μM and 64 μM were present. The negative control used was samples without antimicrobial peptide, while Triton X-100 (AppliChem) was used in an end concentration of 5% as positive control for the permeabilization. The samples were cultivated for two hours at 37° C. and with continuous gassing with 5% CO2 in a climatically controlled chamber. Then, in each case 100 μl of each sample were removed and transferred to new sterile microtiter plates for determining the direct membrane damage. The remaining 100 μl of the samples were cultivated for at least four further days.
For this purpose, 10 μl of lysing solution were added to in each case 100 μl of cell suspension and incubated for 60 minutes at 37° C. Then, the cell culture supernatants were investigated as described above. The lowest peptide concentration at which complete suppression of the cell growth was established after four days was stipulated as the minimum toxic concentration (MTC).

[3] = MHB, 18 hours at 37° C., mean of four test series

Row | Substance | MIC S. xylosus (Staphylococcus xylosus; 18 h) [µM] | MIC E. coli (E. coli DH5α; DH5α, 18 h) [µM] | Toxicity LD50 [1] [µM] | Toxicity MTC (minimum toxic concentration) [2] [µM] | MIC S. xylosus (Staphylococcus xylosus; [3]) [µM] | MIC E. coli (E. coli DH5α; [3]) [µM]
1 | GSGILILIKRK [M5] | >64 | >64 | >64 | >64 |  | 
2 | ILIKRK [N7, ILIKRK] | >64 | >64 | >64 | >64 |  | 
3 | ILILIKRK [N5] | 64 | 64 | >64 | >64 |  | 
4 | ILILILILKRK [M3] | >64 | >64 | >64 | >64 |  | 
5 | KKKFFFFFKKK [S8] | 4 | 16 | >64 |  |  | 
6 | KKKIIIIIIKKK-NH2 [O1′] |  |  |  |  | 0.25 | 4
7 | KKKIIIIIKKK [S2] | 0.5 | 8 | >64 |  |  | 
8 | KKKKKIIIIIDDDDD [D1] | >64 | >64 | >64 | >64 |  | 
9 | KKKKKIIIIIDDDDK [D8] | >64 | >64 | >64 | >64 |  | 
10 | KKKKKIIIIIDDDKK [D7] | >64 | >64 | >64 | >64 |  | 
11 | KKKKKIIIIIDKKKK [D6] | 16 | 32 | >64 | >64 |  | 
12 | KKKKKIIIIIKDDDD [D2] | >64 | >64 | >64 | >64 |  | 
13 | KKKKKIIIIIKKKDD [D3] | 32 | >64 | >64 | >64 |  | 
14 | KKKKKIIIIIKKKKD [D4] | 16 | 32 | >64 | >64 |  | 
15 | KKKKKIIIIIKKKKK [D5] | 2 | 16 | >64 | >64 |  | 
16 | KKKLLLLLKKK [S4] | 8 | 16 | >64 |  |  | 
17 | KKKVVVVVKKK [S6] | 8 | 64 | >64 |  |  | 
18 | KLILKRKRKRILIK [A4] | 16 | 32 | >64 | >64 |  | 
19 | KRKGKRK [H7, KRKGKRK] | 64 | >64 | >64 | >64 |  | 
20 | KRKGSGKRK [H8] | >64 | >64 | >64 | >64 |  | 
21 | KRKIKRK [H5, KRKIKRK] | >64 | >64 | >64 | >64 |  | 

Row | Substance | MIC S. xylosus (Staphylococcus xylosus; 18 h) [µM] | MIC E. coli (E. coli DH5α; DH5α, 18 h) [µM] | Toxicity LD50 [1] [µM] | Toxicity MTC (minimum toxic concentration) [2] [µM] | MIC S. xylosus (Staphylococcus xylosus; [3]) [µM] | MIC E. coli (E. coli DH5α; [3]) [µM]
22 | KRKIL [C8, KRKIL] | >64 | >64 | >64 | >64 |  | 
23 | KRKILI [C7, KRKILI] | >64 | >64 | >64 | >64 |  | 
24 | KRKILIKRK [H3] | 64 | >64 | >64 | >64 |  | 
25 | KRKILIL [C6, KRKILIL] | >64 | >64 | >64 | >64 |  | 
26 | KRKILILI [C5] | >64 | >64 | >64 | >64 |  | 
27 | KRKILILIGSG [M4] | >64 | >64 | >64 | >64 |  | 
28 | KRKILILIK [C4] | 8 | 32 | >64 | >64 |  | 
29 | KRKILILIKR [C3] | 8 | 16 | >64 | >64 |  | 
30 | KRKILILIKRK [M1] | 2 | 8 | >64 | >64 |  | 
31 | KRKILILIKRKR [C2] | 2 | 16 | >64 | >64 |  | 
32 | KRKILILIKRKRK [C1] | 1 | 16 | 61 | >64 |  | 
33 | KRKILILILIKRK [H1] | 1 | 8 | >64 | >64 |  | 
34 | KRKILILILIL [M2] | >64 | >64 | >64 | >64 |  | 
35 | KRKKRK [H6, KRKKRK] | 16 | >64 | >64 | >64 |  | 
36 | KRKLIKRK [H4] | >64 | >64 | >64 | >64 |  | 
37 | KRKLILIKRK [H2] | 16 | >64 | >64 | >64 |  | 
38 | LKLLKKLLKKLLKLL [KL-helix] | 2 | 4 |  | 8.0 |  | 
39 | RRRFFFFFRRR [S7] | 0.5 | 4 | >64 |  |  | 
40 | RRRIIIIIRRR [S1] | 2 | 8 | >64 |  |  | 
41 | RRRLLLLLRRR [S3] | 1 | 8 | >64 |  |  | 
